Results reported in patent US20140364405A1, “TREATMENT OF SEBORRHOEA” (McFarlane Marketing (Aust.)Pty. Ltd., priority 2011, published 2014).

Experiments:
liver dysfunction = conditions: in vivo; cited from earlier work
[1] = test system: skin sebum (skin surface lipids); test: Pilot clinical study: sebum reduction measured with Sebumeter SM810PC; assay type: in vivo, humans; conditions: for sebum reduction: one side of face, after 28 days
Description: (§1) In an initial pilot study in humans, 3 topical formulations were evaluated for effectiveness in reduction of sebum or treatment of acne.
(§2) The active substance in each of these formulations was: • Formulation 1—natural isolutrol (sodium 24R—scymnol sulphate). • Formulation 2—synthetic (24R)—scymnol. • Formulation 3—synthetic racemic (24RS)—scymnol.
(§3) In each formulation, the active substance was incorporated at 0.015% w/w into an oil-free topical lotion. In the pilot study, each test formulation was applied to one side of the face of a test subject, twice daily, for 28 days in the case of Formulations 1 and 2, and for 42 days in the case of Formulation 3. For each test formulation, 10 healthy female test subjects participated in the pilot study.
For the evaluation of sebum reduction, a Sebumeter SM810PC (Courage+Khazaka electronic GmbH) was used to obtain measurement of skin sebum (skin surface lipids) on days 0, 3, 7, 14, 21, 28, 35 and 42. To accomplish this, a special purpose film of the cartridge measuring head was applied for 30 seconds to the relevant skin area. The cartridge was inserted into the Sebumeter SM810 PC for electronic determination of film transparency variations. The LC-display of the instrument presents the result in terms of μg/cm^2. Duplicated measurements were obtained on the same site at each visit, and the results were averaged.

seborrhoea = conditions: particularly when used topically; cited from earlier work
[2] = test system: total acne lesion (pustules, papules and comedones) counts; test: Pilot clinical study: anti-acne treatment, total acne lesion counts; assay type: in vivo, humans; conditions: 0.015% w/w in oil-free topical lotion, twice daily, over the 42 day test period
Description: as §1, §2, §3
For evaluation of anti-acne treatment, reduction in total acne lesion (pustules, papules and comedones) counts was measured.

[3] = 0.015% w/w in oil-free topical lotion, twice daily

C[C@H](CC[C@@H](O)C(CO)CO)[C@H]1CC[C@H]2[C@@H]3[C@H](O)C[C@@H]4C[C@H](O)CC[C@]4(C)[C@H]3C[C@H](O)[C@]12C [(24R)-scymnol, 24R-(+)-5β-cholestane-3α,7α,12α,24,26,27-hexol]
treatment of liver dysfunction (liver dysfunction): activity in the treatment of liver dysfunction
sebum reduction [1, 3]: at least as effective in sebum reduction as the active substance of Formulation 1

C[C@H](CC[C@@H](O)C(CO)CO)[C@H]1CC[C@H]2[C@@H]3[C@H](O)C[C@@H]4C[C@H](O)CC[C@]4(C)[C@H]3C[C@H](O)[C@]12C [(24S)-scymnol]
effect of presence of the non-natural enantiomer in the racemate on the sebum study ([1]; as component of racemic (24RS)-scymnol of Formulation 3): no adverse effect in the sebum study

CC(CC[C@@H](O)C(CO)COS(=O)(=O)[O-])C1CCC2C3C(O)C[C@@H]4CC(O)CCC4(C)C3CC(O)C12C.[Na+] (stereo partly drawn) [sodium 24R-scymnol sulphate, 24(+)-3α, 7α,12α,24,26-pentahydroxy-coprostane-27-sodium sulphate ester]
treatment of seborrhoea (seborrhoea): effective in the treatment of seborrhoea

racemic (24RS,25RS) sodium scymnol sulphate [racemic (24RS)-scymnol]
reduction of total acne lesion counts [2]: effective in reduction of total acne lesion counts
sebum reduction [1, 3]: at least as effective in sebum reduction as the active substances of Formulations 1 and 2
sebum reduction when test period extended ([1]; 0.015% w/w in oil-free topical lotion, twice daily, test period extended to 42 days): sebum reduction continued
